PubChem BioAssay AID334 (DTP/NCI, 2004)
Where “and” joins values, the source holds several entries; their conditions need not be identical. Equal entries are not always repeated. Inconclusive results and toxic doses are left out. Rule for the calls: active = survival T/C of 150% or more; inactive = T/C below 125% in these data.

Tested on: CD2F1 mice, intracerebral P388 leukemia, median survival T/C%
Test: NCI In Vivo Anticancer Drug Screen. Data for tumor model P388 Leukemia (intracerebral) in CD2F1 (CDF1) mice
Details: endpoint: median survival time, higher = longer survival
Method: The antitumor activity of compounds was measured in mice bearing transplantable tumors. Survival or tumor size were measured and the results are expressed as the measurement made in the treated group (T) divided by the measurement made in the vehicle treated control group (C). The tumor model used in this assay is P388 Leukemia (intracerebral) in CD2F1 (CDF1) mice

[1] = dose: 50.0 mg/kg/injection, schedule: Q01DX009 (ip), vehicle: saline
[2] = dose: 8.0 mg/kg/injection, schedule: Q01DX009 (ip), vehicle: Klucel (hydroxypropylcellulose) (HPC)
[3] = dose: 8.0 mg/kg/injection, schedule: Q01DX009 (ip), vehicle: saline with Tween-80
[4] = dose: 16.0 mg/kg/injection, schedule: Q01DX009 (ip), vehicle: Klucel (hydroxypropylcellulose) (HPC)
[5] = dose: 16.0 mg/kg/injection, schedule: Q01DX009 (ip), vehicle: saline with Tween-80
[6] = dose: 32.0 mg/kg/injection, schedule: Q01DX009 (ip), vehicle: Klucel (hydroxypropylcellulose) (HPC)
[7] = dose: 32.0 mg/kg/injection, schedule: Q01DX009 (ip), vehicle: saline with Tween-80
[8] = dose: 64.0 mg/kg/injection, schedule: Q01DX009 (ip), vehicle: Klucel (hydroxypropylcellulose) (HPC)
[9] = dose: 64.0 mg/kg/injection, schedule: Q01DX009 (ip), vehicle: saline with Tween-80
[10] = dose: 128.0 mg/kg/injection, schedule: Q01DX009 (ip), vehicle: Klucel (hydroxypropylcellulose) (HPC)
[11] = dose: 128.0 mg/kg/injection, schedule: Q01DX009 (ip), vehicle: saline with Tween-80
[12] = dose: 256.0 mg/kg/injection, schedule: Q01DX009 (ip), vehicle: saline with Tween-80
[13] = dose: 8.0 mg/kg/injection, schedule: Q01DX009 (ip), vehicle: saline
[14] = dose: 16.0 mg/kg/injection, schedule: Q01DX009 (ip), vehicle: saline
[15] = dose: 32.0 mg/kg/injection, schedule: Q01DX009 (ip), vehicle: saline

Measured: T/C

Nc1ncnc2c1ncn2C1OC(COP(=O)(O)O)C(O)C1O (stereo not given)
inactive: [1] 97 % of control | dose: 1600.0 mg/kg/injection, schedule: Q01DX009 (ip), vehicle: saline 100 % of control and 104 % of control

CCN(C)N=Nc1ccc(C(N)=O)cc1
inactive: dose: 25.0 mg/kg/injection, schedule: Q01DX009 (ip), vehicle: Klucel (hydroxypropylcellulose) (HPC) 101 % of control
active: dose: 100.0 mg/kg/injection, schedule: Q01DX009 (ip), vehicle: Klucel (hydroxypropylcellulose) (HPC) 154 % of control

CSCS(=O)C[C@H](CO)NC(=O)/C=C/c1c(C)[nH]c(=O)[nH]c1=O (stereo not given in full)
inactive: dose: 0.06 mg/kg/injection, schedule: Q01DX005 (ip), vehicle: Klucel (hydroxypropylcellulose) (HPC) 103 % of control and 104 % of control | dose: 0.12 mg/kg/injection, schedule: Q01DX005 (ip), vehicle: Klucel (hydroxypropylcellulose) (HPC) 101 % of control and 105 % of control | dose: 0.25 mg/kg/injection, schedule: Q01DX005 (ip), vehicle: Klucel (hydroxypropylcellulose) (HPC) 107 % of control and 110 % of control | dose: 0.5 mg/kg/injection, schedule: Q01DX005 (ip), vehicle: Klucel (hydroxypropylcellulose) (HPC) 106 % of control and 108 % of control

COc1cc2c(c3c1c(=O)c1ccccc1n3C)C=CC(C)(C)O2
inactive: dose: 128.0 mg/kg/injection, schedule: Q01DX005 (ip), vehicle: Klucel (hydroxypropylcellulose) (HPC) 107 % of control | dose: 256.0 mg/kg/injection, schedule: Q01DX005 (ip), vehicle: Klucel (hydroxypropylcellulose) (HPC) 112 % of control | dose: 512.0 mg/kg/injection, schedule: Q01DX005 (ip), vehicle: Klucel (hydroxypropylcellulose) (HPC) 113 % of control

O=C1c2c(O)ccc(O)c2C(=O)c2c(NCCNCCO)ccc(NCCNCCO)c21
inactive: dose: 0.5 mg/kg/injection, schedule: Q01DX009 (ip), vehicle: saline with Tween-80 100 % of control | dose: 1.0 mg/kg/injection, schedule: Q01DX009 (ip), vehicle: saline with Tween-80 105 % of control | dose: 2.0 mg/kg/injection, schedule: Q01DX009 (ip), vehicle: saline with Tween-80 106 % of control

C[C@]12C=CC(=O)C=C1CC[C@@H]1[C@@H]2CC[C@]2(C)OC(=O)CC[C@@H]12
inactive: [2] 105 % of control and 111 % of control | [3] 95 % of control and 105 % of control | [4] 100 % of control and 103 % of control | [5] 104 % of control and 105 % of control | [6] 114 % of control and 102 % of control | [7] 97 % of control and 104 % of control | [8] 100 % of control and 105 % of control | [9] 97 % of control | [10] 91 % of control and 111 % of control | [11] 104 % of control and 112 % of control | [12] 121 % of control and 94 % of control

O=C1c2ccccc2C(=O)c2c(NCCNCCO)ccc(NCCNCCO)c21
inactive: dose: 4.0 mg/kg/injection, schedule: Q01DX005 (ip), vehicle: saline with Tween-80 112 % of control | dose: 4.0 mg/kg/injection, schedule: Q01DX009 (ip), vehicle: saline with Tween-80 109 % of control | dose: 4.0 mg/kg/injection, schedule: Q01DX009 (ip), vehicle: saline 101 % of control and 105 % of control | dose: 8.0 mg/kg/injection, schedule: Q01DX005 (ip), vehicle: saline with Tween-80 104 % of control | [3] 118 % of control and 121 % of control | [13] 91 % of control and 111 % of control | dose: 16.0 mg/kg/injection, schedule: Q01DX005 (ip), vehicle: saline with Tween-80 114 % of control | [5] 119 % of control and 108 % of control | [14] 120 % of control and 112 % of control | dose: 32.0 mg/kg/injection, schedule: Q01DX005 (ip), vehicle: saline with Tween-80 96 % of control | [7] 87 % of control and 101 % of control | [15] 90 % of control | [9] 98 % of control

CCC(=O)O[C@H]1CC[C@H]2[C@@H]3CCC4=CC(=O)CC[C@]4(C)[C@H]3CC[C@]12C
inactive: [3] 105 % of control | [5] 108 % of control | [14] 106 % of control | [7] 105 % of control | [15] 99 % of control | [9] 117 % of control | dose: 64.0 mg/kg/injection, schedule: Q01DX009 (ip), vehicle: saline 100 % of control | [11] 100 % of control | dose: 128.0 mg/kg/injection, schedule: Q01DX009 (ip), vehicle: saline 100 % of control | [12] 107 % of control | dose: 256.0 mg/kg/injection, schedule: Q01DX009 (ip), vehicle: saline 100 % of control | dose: 512.0 mg/kg/injection, schedule: Q01DX009 (ip), vehicle: saline with Tween-80 106 % of control | dose: 512.0 mg/kg/injection, schedule: Q01DX009 (ip), vehicle: saline 109 % of control
active: [13] 178 % of control

C[C@]12C=CC(=O)C=C1CC[C@@H]1[C@@H]2C(=O)C[C@@]2(C)[C@H]1CC[C@]2(O)C(=O)CO
inactive: [2] 95 % of control and 99 % of control | [4] 100 % of control and 104 % of control | [6] 98 % of control and 102 % of control | [8] 99 % of control and 104 % of control | [10] 95 % of control and 102 % of control | dose: 256.0 mg/kg/injection, schedule: Q01DX009 (ip), vehicle: Klucel (hydroxypropylcellulose) (HPC) 102 % of control and 104 % of control | dose: 512.0 mg/kg/injection, schedule: Q01DX009 (ip), vehicle: Klucel (hydroxypropylcellulose) (HPC) 95 % of control and 99 % of control

COc1cccc2c1C(=O)c1c(O)c3c(c(O)c1C2=O)C[C@@](O)(C(=O)CO)C[C@@H]3OC1CC(N)C(O)C(C)O1 (stereo not given in full)
inactive: dose: 0.5 mg/kg/injection, schedule: Q01DX001 (ip), vehicle: saline 89 % of control | dose: 1.0 mg/kg/injection, schedule: Q01DX001 (ip), vehicle: saline 98 % of control | dose: 2.0 mg/kg/injection, schedule: Q01DX001 (ip), vehicle: saline 94 % of control | dose: 4.0 mg/kg/injection, schedule: Q01DX001 (ip), vehicle: saline 90 % of control | dose: 8.0 mg/kg/injection, schedule: Q01DX001 (ip), vehicle: saline 80 % of control | dose: 16.0 mg/kg/injection, schedule: Q01DX001 (ip), vehicle: saline 91 % of control

O=[N+]([O-])O.[Ga]
inactive: dose: 32.0 mg/kg/injection, schedule: Q01DX005 (ip), vehicle: saline 111 % of control | dose: 64.0 mg/kg/injection, schedule: Q01DX005 (ip), vehicle: saline 111 % of control | dose: 128.0 mg/kg/injection, schedule: Q01DX005 (ip), vehicle: saline 104 % of control

CC1(C)N=C(N)N=C(N)N1c1ccc(OCc2ccc(C(=O)Nc3cccc(S(=O)(=O)F)c3)cc2)c(Cl)c1
inactive: dose: 50.0 mg/kg/injection, schedule: Q04DX003 (ip), vehicle: saline 100 % of control | dose: 100.0 mg/kg/injection, schedule: Q04DX003 (ip), vehicle: saline 94 % of control | dose: 200.0 mg/kg/injection, schedule: Q04DX003 (ip), vehicle: saline 105 % of control | dose: 400.0 mg/kg/injection, schedule: Q04DX003 (ip), vehicle: saline 88 % of control

COc1ccc2c(c1OC(C)=O)-c1cc(OC(C)=O)cc3c1C(C2)N(C(=O)CN(CCCl)CCCl)CC3 (stereo not given)
inactive: dose: 1.5 mg/kg/injection, schedule: Q01DX009 (ip), vehicle: DMSO 104 % of control | dose: 3.0 mg/kg/injection, schedule: Q01DX009 (ip), vehicle: DMSO 101 % of control | dose: 6.0 mg/kg/injection, schedule: Q01DX009 (ip), vehicle: DMSO 100 % of control | dose: 12.0 mg/kg/injection, schedule: Q01DX009 (ip), vehicle: DMSO 88 % of control

CC1(C)N=C(N)N=C(N)N1c1ccc(OCCCNC(=O)Nc2cccc(S(=O)(=O)F)c2)c(Cl)c1
inactive: dose: 25.0 mg/kg/injection, schedule: Q01DX009 (ip), vehicle: saline 105 % of control | [1] 111 % of control | dose: 100.0 mg/kg/injection, schedule: Q01DX009 (ip), vehicle: saline 100 % of control

[N-]=[N+]=CC(=O)CCC(N)C(=O)O (stereo not given)
inactive: dose: 0.05 mg/kg/injection, schedule: Q01DX009 (ip), vehicle: saline 107 % of control | dose: 0.2 mg/kg/injection, schedule: Q01DX009 (ip), vehicle: saline 105 % of control | dose: 0.4 mg/kg/injection, schedule: Q01DX009 (ip), vehicle: saline 103 % of control

O=NN(CCCl)C(=O)NCCCl
active: dose: 8.0 mg/kg/injection, schedule: Q01DX005 (iv), vehicle: saline + alcohol 160 % of control | dose: 30.0 mg/kg/injection, schedule: Q01DX001 (ip), vehicle: saline + alcohol 202 % of control | dose: 40.0 mg/kg/injection, schedule: Q01DX001 (ip), vehicle: saline + alcohol 202 % of control
